Test results published in ChEMBL document CHEMBL3612063, “Multistage virtual screening and identification of novel HIV-1 protease inhibitors by integrating SVM, shape, pharmacophore and docking methods” (Eur J Med Chem, 2015).
Activity calls are given as the source filed them. No cut-off for these calls is given here. Square brackets hold non-standard residues; d marks the D form. Peptide text beside a SMILES is read from it. * marks the point of attachment. Hyp = O=C(O)[C@@H]1C[C@@H](O)CN1; ONp = O=[N+]([O-])c1ccc(O*)cc1; Cbz = O=C(OCc1ccccc1)*; Boc = CC(C)(C)OC(=O)*; OBn = c1ccc(CO*)cc1

How the values were obtained:
[1] = biological target: Protease (Human immunodeficiency virus 1) (UniProt Q9YQ12); test: Inhibition of recombinant HIV1 protease at 1 mM using FRET substrate peptide by FRET assay
Protease = Protease (Human immunodeficiency virus 1, UniProt Q9YQ12); test: Inhibition of recombinant HIV1 protease using FRET substrate peptide by FRET assay
[2] = biological target: Protease (Human immunodeficiency virus 1) (UniProt Q9YQ12); test: Inhibition of recombinant HIV1 protease at 2 uM using FRET substrate peptide by FRET assay

Chain of Protease (Human immunodeficiency virus 1) (Q9YQ12 as listed by the source): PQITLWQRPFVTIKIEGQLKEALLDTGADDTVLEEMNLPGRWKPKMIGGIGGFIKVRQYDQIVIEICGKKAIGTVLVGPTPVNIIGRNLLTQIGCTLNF
Chain of Protease (Q9YQ12 whole entry): as the sequence (Q9YQ12 as listed by the source) above

SMILES | inhibition [1] | IC50 (Protease) [µM] | inhibition [2]
CC(C)[C@H](NC(=O)[C@H](Cc1ccccc1)NC(=O)OC(C)(C)C)C(=O)NCC(=O)OCc1ccccc1 (Boc-Phe-Val-Gly-OBn) | inactive | – | –
COC(=O)[C@H](Cc1ccc(O)cc1)NC(=O)[C@H](CC(C)C)NC(=O)[C@H](CO)NC(=O)OCc1ccccc1 (Cbz-Ser-Leu-Tyr-OMe) | Active | 162 | –
COC(=O)[C@H](CC(C)C)NC(=O)[C@H](Cc1ccccc1)NC(=O)[C@H](CO)NC(=O)OCc1ccccc1 (Cbz-Ser-Phe-Leu-OMe) | Active | 62 | –
CC(C)CC(=O)N[C@H](C(=O)N[C@H](C(=O)N[C@@H](CC(C)C)[C@@H](O)CC(=O)N[C@@H](C)C(=O)N[C@@H](CC(C)C)[C@@H](O)CC(=O)O)C(C)C)C(C)C | – | – | Active
CC(C)C[C@@H](NC(=O)[C@H](CSCc1ccccc1)NC(=O)OCc1ccccc1)C(=O)OCc1ccccc1 | inactive | – | –
O=C(CNC(=O)[C@@H]1CCCN1C(=O)[C@@H]1C[C@@H](O)CN1C(=O)OCc1ccccc1)Oc1ccc([N+](=O)[O-])cc1 (Cbz-[Hyp]-Pro-Gly-ONp) | inactive | – | –
C[C@@H](NC(=O)[C@H](Cc1ccccc1)NC(=O)[C@H](Cc1ccccc1)NC(=O)OC(C)(C)C)C(=O)OCc1ccccc1 | inactive | – | –
